The values below come from ChEMBL document CHEMBL2150966, “Discovery of a novel series of potent and orally bioavailable phosphoinositide 3-kinase γ inhibitors” (J Med Chem, 2012).

In general, logD refers to lipophilicity at a set pH, counting ionised and neutral species. The term half-life denotes the time needed for the level to fall by half in the phase considered. By bioavailability is commonly meant dose-corrected exposure relative to a reference, in per cent. High values mean much systemic uptake, low ones little systemic uptake. What is called AUC(0-inf) is total exposure, with the tail of the curve extrapolated. A high value points to high exposure. One may read the Papp A→B as how fast a substance crosses the layer from the apical side. The term Cmax denotes the peak of the concentration-time curve.

Data set [1] can be described thus: Plasma concentration in C57BL6 mouse at 100 mg/kg, po after 4 hr. More on the design: dose 100 mg/kg, route oral. Type of data set: ADME, organism-based.
Data set [2] in a line: Plasma concentration in C57BL6 mouse at 100 mg/kg, po after 1 hr. Type of data set: ADME, organism-based. More on the design: dose 100 mg/kg, route oral.
A short description of data set [3]: Kinetic solubility of compound in PBS at pH 7.4. Type of data set: physicochemical. As to conditions: read-out: Kinetic_solubility.
The nature of data set [4]: Lipophilicity of compound, Log D. Type of data set: physicochemical. The settings on record: octanol/water.
The nature of data set [5]: Drug metabolism in mouse liver microsome assessed as compound oxidation after 30 mins. As to conditions: liver microsomes, read-out: Drug metabolism. Type of data set: ADME. A general note: Microsomes from liver hold many membrane-bound enzymes, among them those of drug oxidation.
The nature of data set [6]: Half life in Sprague-Dawley rat at 5 mg/kg, po. As to conditions: in vivo. Also on record: dose 5 mg/kg, route oral. Type of data set: ADME, organism-based.
Data set [7] in a line: Oral bioavailability Sprague-Dawley rat at 5 mg/kg. Type of data set: ADME, organism-based. The settings on record: in vivo.
The nature of data set [8]: AUC (0 to infinity) in Sprague-Dawley rat at 5 mg/kg, po. Type of data set: ADME, organism-based. Also on record: time infinity, dose 5 mg/kg, route oral. As to conditions: plasma.
Data set [9] is described as follows: Apparent permeability across apical to basolateral side of MDCK cells. Type of data set: ADME, cell-based, Canis lupus familiaris. The settings on record: dog.
Data set [10] is described as follows: in vivo. The settings on record: BALB/c, mouse, plasma, po, 100 mg/kg.
The nature of data set [11]: Cmax in Sprague-Dawley rat at 5 mg/kg, po. Type of data set: ADME, organism-based. More on the design: dose 5 mg/kg, route oral. The settings on record: in vivo.

In brackets after ≈: the same amount, converted by molar mass.

With `COc1ccc(-c2cccc(S(=O)(=O)N3CCN(c4nccnc4-c4ccc(OC)cc4)CC3)c2)cc1`, the concentration at 4 h in data set [1] turned out to be 0.1 µM. The compound further had a concentration at 1 h in data set [2] of 0.5 µM.
For `CNC(=O)c1nc(-c2cccc(-c3nnn[nH]3)c2)cnc1N`, in data set [3], the solubility kinetic is 424 µM (≈ 126 µg/mL). In data set [4], this compound came in with a logD of 0.47.
In data set [1], `CC(C)c1ccc(-c2nccnc2N2CCN(S(=O)(=O)c3cccc(-c4cnc(N)nc4)c3)CC2)cc1` returned a concentration at 4 h of 0.1 µM. In data set [2], this compound gave a concentration at 1 h of 0.7 µM. In addition, in [5], the metabolised at 0.5 h stood at 79%.
As to `CC(C)c1ccc(-c2ncccc2N2CCN(S(=O)(=O)c3cccc(-c4cnc(N)nc4)c3)CC2)cc1`, the half-life in data set [6] is 1.82 h. Also, the solubility kinetic in data set [3] is less than 5 µM. In data set [1], the concentration at 4 h amounted to 3.2 µM. Also, the concentration at 1 h in data set [2] came to 12.9 µM. The bioavailability in data set [7] is 12.7%. The same compound came in with a pH-dependent lipophilicity (logD) in [4] greater than 4. The compound also displayed an AUC(0-inf) in data set [8] of 0.9 µM·h. Besides, in data set [5], the metabolised at 0.5 h was determined as 37%.
As to `CNC(=O)c1nc(-c2cccc(S(=O)(=O)Nc3ccccc3)c2)cnc1N`, in data set [9], the apical-to-basolateral permeability (Papp A→B) was found to be 10 ×10⁻⁶ cm/s.
On the same count and under the same terms, with `CNC(=O)c1nc(-c2ccc(Cl)c(S(=O)(=O)Nc3ccccc3)c2)cnc1N` the figure was 10 ×10⁻⁶ cm/s.
`CNC(=O)c1nc(-c2ccc(Cl)c(S(=O)(=O)NC)c2)cnc1N`: the Papp A→B in data set [9] turned out to be 10 ×10⁻⁶ cm/s.
As to `CNC(=O)c1nc(-c2ccc(Cl)c(S(N)(=O)=O)c2)cnc1N`, the Papp A→B in data set [9] is 10 ×10⁻⁶ cm/s.
Consider `CNC(=O)c1nc(-c2ccc(Cl)c(S(=O)(=O)NCC(F)(F)F)c2)cnc1N`, for which the solubility kinetic in data set [3] turned out to be 211 µM (≈ 89.4 µg/mL). Moreover, the apical-to-basolateral permeability (Papp A→B) in [9] amounted to 10 ×10⁻⁶ cm/s.
As for `CNC(=O)c1nc(-c2ccc(OC)c(S(=O)(=O)Nc3ccccc3)c2)cnc1N`, the Papp A→B in data set [9] is 10 ×10⁻⁶ cm/s.
In the case of `CNC(=O)c1nc(-c2ccc(F)c(S(=O)(=O)Nc3ccccc3)c2)cnc1N`, the apparent permeability from apical to basolateral (Papp A→B) in data set [9] was found to be 10 ×10⁻⁶ cm/s.
Turning to `CNC(=O)c1nc(-c2cnc(N)c(S(=O)(=O)Nc3ccccc3)c2)cnc1N`, in data set [9], the Papp A→B is 10 ×10⁻⁶ cm/s.
With `CNC(=O)c1nc(-c2cccc(NS(=O)(=O)c3ccccc3)c2)cnc1N`, the Papp A→B in data set [9] was 10 ×10⁻⁶ cm/s.
Still for that read-out and setting: with `CNC(=O)c1nc(-c2cccc(NS(=O)(=O)c3cccc(Cl)c3)c2)cnc1N` the figure was 10 ×10⁻⁶ cm/s; with `CNC(=O)c1nc(-c2ccc(Cl)c(NS(=O)(=O)c3cccc(Cl)c3)c2)cnc1N`, 10 ×10⁻⁶ cm/s; with `CNC(=O)c1nc(-c2ccc(Cl)c(S(=O)(=O)Nc3cccc(C)c3)c2)cnc1N`, 10 ×10⁻⁶ cm/s.
On to `CNC(=O)c1nc(-c2ccc(Cl)c(S(=O)(=O)Nc3cccc(F)c3)c2)cnc1N`, for which the concentration at 4 h in data set [1] was found to be 1 µM. Also, the concentration at 1 h in [2] was determined as 1.6 µM. In data set [9], the Papp A→B stood at 10 ×10⁻⁶ cm/s.
In data set [1], `CNC(=O)c1nc(-c2ccc(Cl)c(S(=O)(=O)Nc3cccc(OC)c3)c2)cnc1N` registered a concentration at 4 h of 0.09 µM. Besides, the concentration at 1 h in data set [2] was found to be 0.7 µM. Also, in data set [9], the Papp A→B was found to be 10 ×10⁻⁶ cm/s.
For `CNC(=O)c1nc(-c2ccc(Cl)c(S(=O)(=O)Nc3cccc(C(F)(F)F)c3)c2)cnc1N`, in data set [1], the concentration at 4 h was determined as 0.4 µM. In data set [2], this compound returned a concentration at 1 h of 1.7 µM. The apical-to-basolateral permeability (Papp A→B) in data set [9] is 10 ×10⁻⁶ cm/s.
Take `CNC(=O)c1nc(-c2ccc(Cl)c(S(=O)(=O)Nc3cccc(Cl)c3)c2)cnc1N`: in data set [3], the solubility kinetic is less than 1 µM. In data set [1], this compound displayed a concentration at 4 h of 0.1 µM. Further, the concentration at 1 h in [2] stood at 1.3 µM. Also, in data set [9], the apical-to-basolateral permeability (Papp A→B) was 10 ×10⁻⁶ cm/s.
The corresponding values for `CNC(=O)c1nc(-c2ccc(Cl)c(S(=O)(=O)Nc3ccccc3Cl)c2)cnc1N` are 24 µM (≈ 10.9 µg/mL), 9.6 µM, 59.1 µM and 10 ×10⁻⁶ cm/s.
With `CNC(=O)c1nc(-c2ccc(Cl)c(S(=O)(=O)Nc3ccc(Cl)cc3)c2)cnc1N`, in data set [9], the Papp A→B is 10 ×10⁻⁶ cm/s.
Take `CNC(=O)c1nc(-c2cccc(S(=O)(=O)Nc3cccc(Cl)c3)c2)cnc1N`: in data set [1], the concentration at 4 h was determined as 0.4 µM. The same compound gave a concentration at 1 h in data set [2] of 0.6 µM. Further, the Papp A→B in [9] was determined as 10 ×10⁻⁶ cm/s.
Consider `CNC(=O)c1nc(-c2ccc(Cl)c(S(=O)(=O)Nc3ccc(F)cc3Cl)c2)cnc1N`, for which the concentration at 4 h in data set [10] was 20.3 µM; in data set [1], 19.2 µM. In [2], this compound showed a concentration at 1 h of 64.8 µM. Also, the apparent permeability from apical to basolateral (Papp A→B) in [9] stood at 10 ×10⁻⁶ cm/s.
Consider `CNC(=O)c1nc(-c2ccc(Cl)c(S(=O)(=O)Nc3cccc(F)c3Cl)c2)cnc1N`, for which the concentration at 4 h in [1] is 39.8 µM. Also, the concentration at 1 h in data set [2] is 237 µM. For the same compound, in [9], the Papp A→B turned out to be 10 ×10⁻⁶ cm/s.
As to `CNC(=O)c1nc(-c2ccc(Cl)c(S(=O)(=O)Nc3ccc(Cl)cc3Cl)c2)cnc1N`, the concentration at 4 h in data set [10] is 6.5 µM; in [1], 8.6 µM. In [2], this compound had a concentration at 1 h of 21.3 µM. In addition, the apical-to-basolateral permeability (Papp A→B) in data set [9] stood at 10 ×10⁻⁶ cm/s.
In data set [1], `CNC(=O)c1nc(-c2ccc(Cl)c(S(=O)(=O)Nc3cccc(Cl)c3Cl)c2)cnc1N` came in with a concentration at 4 h of 22.1 µM. This compound also had a concentration at 1 h in data set [2] of 173 µM. Besides, the Papp A→B in data set [9] came out at 10 ×10⁻⁶ cm/s.
For `CNC(=O)c1nc(-c2cccc(S(=O)(=O)Nc3cccc(F)c3F)c2)cnc1N`, in data set [9], the Papp A→B was found to be 10 ×10⁻⁶ cm/s.
For the compound `CNC(=O)c1nc(-c2ccc(Cl)c(S(=O)(=O)Nc3cccc(F)c3F)c2)cnc1N`, in data set [6], the half-life is 4.44 h. Further, the solubility kinetic in data set [3] stood at 176 µM (≈ 79.9 µg/mL). Also, the concentration at 4 h was found to be 43.1 µM in data set [10] and 119 µM in data set [1]. This compound registered a concentration at 1 h in [2] of 333 µM. For the same compound, the bioavailability in data set [7] was 76.7%. Besides, the AUC(0-inf) in [8] stood at 449 µM·h. This compound registered a Cmax in [11] of 42.5 µM. Besides, the Papp A→B in [9] came out at 55 ×10⁻⁶ cm/s.
`CNC(=O)c1nc(-c2ccc(Cl)c(S(=O)(=O)Nc3cccc(F)c3C)c2)cnc1N` showed a half-life in data set [6] of 2.08 h. For the same compound, the concentration at 4 h amounted to 9.2 µM in [10] and 6.2 µM in data set [1]. In [2], this compound yielded a concentration at 1 h of 13.1 µM. Also, the bioavailability in data set [7] turned out to be 66.2%. The same compound gave an AUC(0-inf) in data set [8] of 26.8 µM·h. Moreover, the Cmax in [11] was found to be 9.1 µM. In addition, in data set [9], the Papp A→B was determined as 10 ×10⁻⁶ cm/s.
`Nc1cnc(-c2ccc(Cl)c(S(=O)(=O)Nc3cccc(F)c3F)c2)cn1`: the Papp A→B in data set [9] stood at 10 ×10⁻⁶ cm/s.
With `Nc1ncc(-c2ccc(Cl)c(S(=O)(=O)Nc3cccc(F)c3F)c2)cn1`, the Papp A→B in data set [9] was 10 ×10⁻⁶ cm/s.
Consider `COc1nc(N)ncc1-c1ccc(Cl)c(S(=O)(=O)Nc2cccc(F)c2F)c1`, for which the Papp A→B in data set [9] was found to be 10 ×10⁻⁶ cm/s.
Regarding `Nc1ncc(-c2ccc(Cl)c(S(=O)(=O)Nc3cccc(F)c3F)c2)c(OCC(F)(F)F)n1`, the Papp A→B in data set [9] is 10 ×10⁻⁶ cm/s.
The compound `CS(=O)(=O)N1CCN(Cc2cc3nc(-c4cccc5[nH]ncc45)nc(N4CCOCC4)c3s2)CC1` [PICTILISIB] registered a concentration at 4 h in data set [10] of 5.3 µM.
